For one compound, Ki results are on record in ChEMBL document CHEMBL1147626, “Determination of the stable conformation of GABA(A)-benzodiazepine receptor bivalent ligands by low temperature NMR and X-ray analysis” (Bioorg Med Chem Lett, 2004).

The test deals with T1, GABA-A receptor; alpha-3/beta-3/gamma-2 (Homo sapiens, UniProt P18507+P28472+P34903).
T1 sequence (P18507 whole entry): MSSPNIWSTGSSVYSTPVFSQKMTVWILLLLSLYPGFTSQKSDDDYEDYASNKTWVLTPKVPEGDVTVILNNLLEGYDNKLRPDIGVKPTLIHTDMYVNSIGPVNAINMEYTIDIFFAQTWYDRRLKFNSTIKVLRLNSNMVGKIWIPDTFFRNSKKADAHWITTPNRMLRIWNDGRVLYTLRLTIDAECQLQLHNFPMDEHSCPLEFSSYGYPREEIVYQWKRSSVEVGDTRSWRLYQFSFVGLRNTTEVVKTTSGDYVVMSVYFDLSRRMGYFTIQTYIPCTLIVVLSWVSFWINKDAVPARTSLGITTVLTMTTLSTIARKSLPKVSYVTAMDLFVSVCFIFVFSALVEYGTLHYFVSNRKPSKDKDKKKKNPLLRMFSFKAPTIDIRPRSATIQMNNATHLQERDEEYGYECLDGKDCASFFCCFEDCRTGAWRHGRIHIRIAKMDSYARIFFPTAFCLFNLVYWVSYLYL
T1 sequence (P28472 whole entry): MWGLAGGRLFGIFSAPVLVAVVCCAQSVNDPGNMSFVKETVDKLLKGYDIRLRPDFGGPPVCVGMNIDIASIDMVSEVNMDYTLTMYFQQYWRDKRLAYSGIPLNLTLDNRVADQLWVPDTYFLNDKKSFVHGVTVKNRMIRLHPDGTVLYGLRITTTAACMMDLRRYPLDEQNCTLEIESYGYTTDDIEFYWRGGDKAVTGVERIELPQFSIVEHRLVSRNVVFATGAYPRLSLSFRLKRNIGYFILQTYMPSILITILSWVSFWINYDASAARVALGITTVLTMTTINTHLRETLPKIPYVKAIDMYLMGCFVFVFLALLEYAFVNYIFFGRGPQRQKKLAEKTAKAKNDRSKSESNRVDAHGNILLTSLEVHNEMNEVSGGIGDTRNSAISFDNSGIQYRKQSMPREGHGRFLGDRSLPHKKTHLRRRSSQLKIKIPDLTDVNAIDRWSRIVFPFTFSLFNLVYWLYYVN
T1 sequence (P34903 whole entry): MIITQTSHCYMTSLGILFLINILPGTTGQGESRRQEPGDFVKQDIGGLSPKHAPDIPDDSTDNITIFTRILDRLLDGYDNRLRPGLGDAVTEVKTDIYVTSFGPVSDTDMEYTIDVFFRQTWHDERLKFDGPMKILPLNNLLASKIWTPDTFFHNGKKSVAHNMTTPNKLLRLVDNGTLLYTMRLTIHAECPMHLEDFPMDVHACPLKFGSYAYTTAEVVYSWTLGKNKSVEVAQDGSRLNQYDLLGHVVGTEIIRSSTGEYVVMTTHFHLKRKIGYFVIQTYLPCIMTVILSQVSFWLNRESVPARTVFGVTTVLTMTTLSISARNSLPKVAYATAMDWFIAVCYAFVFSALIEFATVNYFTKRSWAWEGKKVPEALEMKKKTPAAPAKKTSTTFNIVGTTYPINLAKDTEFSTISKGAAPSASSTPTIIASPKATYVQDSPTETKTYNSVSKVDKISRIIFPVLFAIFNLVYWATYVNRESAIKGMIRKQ
The test is described as follows: In vitro inhibition of [3H]-Ro- 15-1788 binding to human GABA-A receptor alpha-3-beta-3-gamma-2 subunits expressed in L(tk-)cells. It is filed as cell-based.

One may read the Ki as the equilibrium dissociation constant of an inhibitor or competing ligand from its target. A higher Ki goes with weaker binding. `C#Cc1ccc2c(c1)C(=O)N(C)Cc1c(C(=O)OCCCOC(=O)c3ncn4c3CN(C)C(=O)c3cc(C#C)ccc3-4)ncn1-2` showed a Ki of 858 nM.
